Converted amounts (≈) assume the structure as drawn. Where a SMILES comes first, the peptide text is derived from it. Bridges are numbered along the chain shown (N, C = ends). Roman numbers before positions name the chains, in order. [ ]: non-standard residue; d: D form. aThr = C[C@H](O)[C@H](N)C(=O)O; NMeDab = CN[C@@H](CCN)C(=O)O; dDab = NCC[C@@H](N)C(=O)O; Dab = NCC[C@H](N)C(=O)O; Abu = CC[C@H](N)C(=O)O; Dap = NC[C@H](N)C(=O)O
Columns and labels:
[1] = test system: Acinetobacter baumannii 872842; type: cell-based; conditions: 872842
How it was run: (§1)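 CLSI broth microdilution in cation-adjusted Mueller-Hinton II broth with 0.002% polysorbate 80 (final), inoculum appr. 10^6 CFU/mL, peptides in serial two-fold dilutions. MIC (μg/mL) is the lowest concentration without visible growth after 18-20 h at 35° C.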

[2] = test system: Acinetobacter baumannii DSM 30008; type: cell-based; conditions: DSM 30008
How it was run: as §1

[3] = test system: Enterobacter cloacae 848840; type: cell-based; conditions: 848840
How it was run: as §1

Escherichia coli 926415 = type: cell-based; conditions: 926415
How it was run: as §1

[4] = test system: Escherichia coli ATCC 25922; type: cell-based; conditions: ATCC 25922
How it was run: as §1

[5] = test system: Klebsiella pneumoniae 968733; type: cell-based; conditions: 968733
How it was run: as §1

[6] = test system: Klebsiella pneumoniae SSI #3010; type: cell-based; conditions: SSI #3010
How it was run: as §1

[7] = test system: Pseudomonas aeruginosa ATCC 27853; type: cell-based; conditions: ATCC 27853
How it was run: as §1

[8] = test system: human red blood cells (hRBC); assay: Hemolysis; type: cell-based; conditions: red cells of human, 1 h, 200
How it was run: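 Washed fresh human RBC (20% v/v) incubated with peptide at 200 μg/mL for 1 h at 37° C with shaking. Supernatant OD540 measured after dilution, blank corrected; percent hemolysis = OD540 peptide / OD540 of 2% Triton X-100 lysis × 100, PBS with 10% water as 0%.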

male ICR mice = assay: Tolerability in a mouse model (Maximum Tolerated Dose assay); type: in vivo; conditions: 2 × 40 mg/kg s.c. at a 12-hr interval, groups of 3
How it was run: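 Peptides in 0.9% NaCl (pH 6.5-7.6) given s.c. at 30 or 40 mg/kg, twice 12 h apart, to groups of 3 male ICR mice (23±3 g). Acute toxic signs (mortality, convulsions, tremors, sedation) and autonomic effects (diarrhea, salivation, piloerection) observed for 30 min after each dose.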

| SMILES | MIC [1] [µg/mL] | Acinetobacter baumannii DSM 30008 MIC [2] [µg/mL] | MIC [3] [µg/mL] | MIC (Escherichia coli 926415) [µg/mL] | Escherichia coli ATCC 25922 MIC [4] [µg/mL] | MIC [5] [µg/mL] | Klebsiella pneumoniae SSI #3010 MIC [6] [µg/mL] | Pseudomonas aeruginosa ATCC 27853 MIC [7] [µg/mL] | Hemolysis at 200 μg/mL [8] [%] | Mortality and dose (male ICR mice) |
| --- | --- | --- | --- | --- | --- | --- | --- | --- | --- | --- |
| CC[C@@H]1NC(=O)[C@@H](CC(C)C)NC(=O)[C@H](CCN)NC(=O)[C@@H](NC(=O)[C@H](CN)NC(=O)[C@@H](NC(=O)[C@H](CCN)NC(=O)CC[C@@H]2NC(=O)[C@H](CCN)NC(=O)[C@H](Cc3ccc(O)cc3)NC(=O)[C@@H](NC(=O)[C@@H](NC(C)=O)C(C)C)CSSC[C@@H](C(=O)N[C@@H](CO)C(N)=O)NC(=O)[C@H]([C@@H](C)CC)NC(=O)[C@H](CO)NC(=O)[C@H](Cc3c[nH]c4ccccc34)NC(=O)[C@H](CCN)NC(=O)CNC2=O)[C@@H](C)O)CCNC(=O)[C@H]([C@@H](C)O)NC(=O)[C@H](CCN)NC(=O)[C@H](CCN)NC1=O [Ex. 299] (I: Ac-VCY[Dab]EG[Dab]WSICS-NH2 / II: [Dab]T[Dap][Dab][Dab][dL][Abu][Dab][Dab]T; disulfide I:2-I:11; amide I:5-II:N; lactam II:4-II:C) | 0.125 (≈ 0.0531 µM) | 0.0625 | 0.125 (≈ 0.0531 µM) | 0.25 (≈ 0.106 µM) | 0.0625 | 0.5 (≈ 0.212 µM) | 0.0625 | 0.25 | <1 | 0/3 died at 2 × 40 mg/kg |
| CC[C@@H]1NC(=O)[C@@H](CC(C)C)NC(=O)[C@H](CCN)NC(=O)[C@@H](NC(=O)[C@H](CN)NC(=O)[C@@H](NC(=O)[C@H](CCN)NC(=O)CC[C@@H]2NC(=O)[C@H](CCN)NC(=O)[C@H](Cc3ccc(O)cc3)NC(=O)[C@@H](NC(=O)[C@@H](NC(C)=O)C(C)C)CSSC[C@@H](C(=O)N[C@@H](CO)C(N)=O)NC(=O)[C@H](C(C)C)NC(=O)[C@H](CCN)NC(=O)[C@H](Cc3c[nH]c4ccccc34)NC(=O)[C@H](CO)NC(=O)[C@@H](CCN)NC2=O)[C@@H](C)O)CCNC(=O)[C@H]([C@@H](C)O)NC(=O)[C@H](CCN)NC(=O)[C@H](CCN)NC1=O [Ex. 300] (I: Ac-VCY[Dab]E[dDab]SW[Dab]VCS-NH2 / II: [Dab]T[Dap][Dab][Dab][dL][Abu][Dab][Dab]T; disulfide I:2-I:11; amide I:5-II:N; lactam II:4-II:C) | 1 (≈ 0.419 µM) | 0.125 | 0.125 (≈ 0.0524 µM) | 0.25 (≈ 0.105 µM) | 0.125 | 2 (≈ 0.839 µM) | 0.0625 | 0.125 | <1 | 0/3 died at 2 × 40 mg/kg |
| CC(=O)N[C@H](C(=O)N[C@H]1CSSC[C@@H](C(=O)N[C@@H](CO)C(N)=O)NC(=O)[C@H](C(C)C)NC(=O)[C@H]([C@H](C)O)NC(=O)[C@H](Cc2c[nH]c3ccccc23)NC(=O)[C@H](CO)NC(=O)[C@@H](CCN)NC(=O)[C@H](CCC(=O)N[C@@H](CCN)C(=O)N[C@H](C(=O)N[C@@H](CN)C(=O)N[C@H]2CCNC(=O)[C@H]([C@@H](C)O)NC(=O)[C@H](CCN)NC(=O)[C@H](CCN)NC(=O)[C@H](CC(C)C)NC(=O)[C@@H](CC(C)C)NC(=O)[C@H](CCN)NC2=O)[C@@H](C)O)NC(=O)[C@H](CCN)NC(=O)[C@H](Cc2ccc(O)cc2)NC1=O)C(C)C [Ex. 306] (I: Ac-VCY[Dab]E[dDab]SW[aThr]VCS-NH2 / II: [Dab]T[Dap][Dab][Dab][dL]L[Dab][Dab]T; disulfide I:2-I:11; amide I:5-II:N; lactam II:4-II:C) | 0.0625 (≈ 0.0259 µM) | 0.0625 | 0.0625 (≈ 0.0259 µM) | 0.0625 (≈ 0.0259 µM) | 0.03125 | 0.125 (≈ 0.0518 µM) | 0.0625 | 0.0625 | <1 | 0/3 died at 2 × 40 mg/kg |
| CC(=O)N[C@H](C(=O)N[C@H]1CSSC[C@@H](C(=O)N[C@@H](CO)C(N)=O)NC(=O)[C@H](C(C)C)NC(=O)[C@H](CO)NC(=O)[C@H](Cc2c[nH]c3ccccc23)NC(=O)[C@H](CO)NC(=O)[C@@H](CCN)NC(=O)[C@H](CCC(=O)N[C@H](CCN)C(=O)N[C@H](C(=O)N[C@@H](CN)C(=O)N[C@H]2CCNC(=O)[C@H]([C@@H](C)O)NC(=O)[C@H](CCN)NC(=O)[C@H](CCN)NC(=O)[C@H](CC(C)C)NC(=O)[C@@H](CC(C)C)NC(=O)[C@H](CCN)NC2=O)[C@@H](C)O)NC(=O)[C@H](CCN)NC(=O)[C@H](Cc2ccc(O)cc2)NC1=O)C(C)C [Ex. 310] (I: Ac-VCY[Dab]E[dDab]SWSVCS-NH2 / II: [dDab]T[Dap][Dab][Dab][dL]L[Dab][Dab]T; disulfide I:2-I:11; amide I:5-II:N; lactam II:4-II:C) | 0.0625 (≈ 0.0261 µM) | 0.0625 | 0.0625 (≈ 0.0261 µM) | 0.0625 (≈ 0.0261 µM) | 0.03125 | 0.0625 (≈ 0.0261 µM) | 0.0625 | 0.125 | <1 | 0/3 died at 2 × 40 mg/kg |
| CC(=O)N[C@H](C(=O)N[C@H]1CSSC[C@@H](C(=O)N[C@@H](CO)C(N)=O)NC(=O)[C@H](C(C)C)NC(=O)[C@H](CO)NC(=O)[C@H](Cc2c[nH]c3ccccc23)NC(=O)[C@H](CO)NC(=O)[C@@H](CCN)NC(=O)[C@H](CCC(=O)N(C)[C@@H](CCN)C(=O)N[C@H](C(=O)N[C@@H](CN)C(=O)N[C@H]2CCNC(=O)[C@H]([C@@H](C)O)NC(=O)[C@H](CCN)NC(=O)[C@H](CCN)NC(=O)[C@H](CC(C)C)NC(=O)[C@@H](CC(C)C)NC(=O)[C@H](CCN)NC2=O)[C@@H](C)O)NC(=O)[C@H](CCN)NC(=O)[C@H](Cc2ccc(O)cc2)NC1=O)C(C)C [Ex. 311] (I: Ac-VCY[Dab]E[dDab]SWSVCS-NH2 / II: [NMeDab]T[Dap][Dab][Dab][dL]L[Dab][Dab]T; disulfide I:2-I:11; amide I:5-II:N; lactam II:4-II:C) | 0.125 (≈ 0.0518 µM) | 0.0625 | 0.125 (≈ 0.0518 µM) | 0.25 (≈ 0.104 µM) | 0.0625 | 0.125 (≈ 0.0518 µM) | 0.0625 | 0.25 | <1 | 0/3 died at 2 × 40 mg/kg |
| CC(=O)N[C@H](C(=O)N[C@H]1CSSC[C@@H](C(=O)N[C@@H](CO)C(N)=O)NC(=O)[C@H](C(C)C)NC(=O)[C@H](CO)NC(=O)[C@H](Cc2c[nH]c3ccccc23)NC(=O)[C@H](CO)NC(=O)[C@@H](CCN)NC(=O)[C@H](CCC(=O)N[C@@H](CCN)C(=O)N[C@H](C(=O)N[C@@H](CN)C(=O)N[C@H]2CCNC(=O)[C@H]([C@@H](C)O)NC(=O)[C@H](CCN)NC(=O)[C@H](CCN)NC(=O)[C@H]([C@@H](C)O)NC(=O)[C@@H](CC(C)C)NC(=O)[C@H](CCN)NC2=O)[C@@H](C)O)NC(=O)[C@H](CCN)NC(=O)[C@H](Cc2ccc(O)cc2)NC1=O)C(C)C [Ex. 331] (I: Ac-VCY[Dab]E[dDab]SWSVCS-NH2 / II: [Dab]T[Dap][Dab][Dab][dL]T[Dab][Dab]T; disulfide I:2-I:11; amide I:5-II:N; lactam II:4-II:C) | 0.25 (≈ 0.105 µM) | 0.125 | 0.25 (≈ 0.105 µM) | 0.5 (≈ 0.209 µM) | 0.0625 | 0.5 (≈ 0.209 µM) | 0.0625 | 0.125 | <1 | 0/3 died at 2 × 40 mg/kg |
